Data published in PMC11019538, “Biophysics-Guided Lead Discovery of HBV Capsid Assembly Modifiers” (ACS Infectious Diseases, 2024).
pKd: −log10 of the molar value.

How the values were obtained:
Cp149 capsid assembly [1] = target: T1, Cp149 capsid assembly (Hepatitis B virus genotype D subtype adw, UniProt P03147); assay: Size exclusion chromatography of Cp149 assembly; format: biochemical; details: 20 μM Cp149, 40 μM CAM, 500 mM NaCl, 1 h, 37 °C
T1 construct: The N-terminal domain of Cp (Cp149) is sufficient for forming regular capsids; made in house; host or cells: E. coli BL21(DE3)
T1 sequence (P03147 1-149): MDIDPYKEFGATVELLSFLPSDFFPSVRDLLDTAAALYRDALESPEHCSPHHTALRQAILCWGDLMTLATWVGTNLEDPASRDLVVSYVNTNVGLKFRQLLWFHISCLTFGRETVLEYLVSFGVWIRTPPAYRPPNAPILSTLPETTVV
Procedure: The Cp149 protein solution and the compound solution were initially mixed in concentrations of 40 μM Cp149 and 80 μM compound and incubated for 1 h at 37 °C to allow the compound to bind to the protein. The NaCl solution was then added to the incubated mixture to final concentrations of 20 μM Cp149, 40 μM compound, and 500 mM NaCl to initiate the assembly of Cp149. This mixture was incubated at 37 °C for 1 h. Finally, […] of the sample was analyzed using a hand-poured Superose 6 column, at the flow rate of 0.4 mL/min, and the isocratic mobile phase was 50 mM HEPES (pH 7.5).

Cp149 capsid assembly [2] = target: T1, Cp149 capsid assembly; assay: Transmission electron microscopy of assembled Cp149 products; format: biochemical; details: 20 μM Cp149, 40 μM compound
Procedure: The assembled samples of Cp149 were prepared as described in the Size Exclusion Chromatography section. Eight μL of each sample was added onto the 300 mesh Lacey Formvar carbon–copper grids (Ted Pella, Inc.) and allowed to sit for 1.5 min. The grid was then rinsed in 500 mL of deionized water for 10 s twice to rinse off the extra buffer on the grid. After drying, the sample was stained with 8 μL of 2% uranyl acetate for 1 min. After removal and drying of the uranyl acetate solution, the sample was imaged with a Hitachi HT7700 electron microscope at an accelerating voltage of 120 kV, at the IMat Materials Characterization Facility of Georgia Institute of Technology. The images underwent processing using ImageJ software. Initially, to minimize noise, a Gaussian blur filter was applied. These images were then converted into an 8 bit binary format for edge detection. ImageJ identified particles ranging in size from 800 to 2000 pixels. An example of a processed image can be seen in Figure S14. The circularity of each particle was calculated using the formula circularity = 4π × area × perimeter^–2. […] A total of four images, each containing a minimum of 100 capsids, were analyzed to determine the proportion of the abnormal capsids. The entire experiment was duplicated, and the outcomes from both sets were then averaged.

Cp149 = target: T2, Cp149 (Hepatitis B virus genotype D subtype adw, UniProt P03147); design: method as in PMID 31712213; details: read-out: previously reported dissociation constant (KD); cited from earlier work
T2 construct: The N-terminal domain of Cp (Cp149) is sufficient for forming regular capsids; made in house; host or cells: E. coli BL21(DE3)
T2 sequence (P03147 1-149): as above

| Compound | effect on distribution of dimers and capsids / capsid size (SEC) (Cp149 capsid assembly [1]) | effect on capsid morphology (TEM) (Cp149 capsid assembly [2]) | pKd (Cp149) |
| --- | --- | --- | --- |
| CCOC(=O)C1=C(CN2CCOCC2)NC(c2nccs2)=NC1c1ccc(F)cc1Br (stereo not drawn) [GLS4, reference compound] | strong enhancement of assembly | strong misdirecting effects |  |
| C#CCNC(=O)C(=O)c1c(C)c(C(=O)Nc2ccc(F)c(F)c2)n(C)c1C [GLP-26] |  |  | 6.15 |
